The values that follow come from patent US20260250290A1 (BRISTOL-MYERS SQUIBB COMPANY, priority 2023, published 2026).

This assay addresses T1, full length SGK1 (Homo sapiens, UniProt O00141).
T1 construct: 125 μM full length SGK1 (Life Technologies Part #PR7358A); purchased Life Technologies PR7358A
T1 sequence (O00141 1-431): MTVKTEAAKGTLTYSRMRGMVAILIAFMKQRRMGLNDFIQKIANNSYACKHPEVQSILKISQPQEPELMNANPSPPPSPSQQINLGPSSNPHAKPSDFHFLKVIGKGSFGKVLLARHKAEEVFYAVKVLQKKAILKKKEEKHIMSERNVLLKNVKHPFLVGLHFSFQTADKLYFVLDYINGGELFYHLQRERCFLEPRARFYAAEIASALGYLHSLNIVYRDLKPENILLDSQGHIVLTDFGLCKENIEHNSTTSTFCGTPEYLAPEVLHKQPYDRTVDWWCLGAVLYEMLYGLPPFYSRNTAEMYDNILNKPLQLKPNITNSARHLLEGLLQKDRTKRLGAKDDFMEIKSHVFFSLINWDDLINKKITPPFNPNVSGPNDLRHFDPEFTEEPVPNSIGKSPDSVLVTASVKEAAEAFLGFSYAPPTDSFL
Nature of the assay: SGK1 inhibition Assay A (Caliper LabChip electrophoretic separation of fluorescent peptide substrate and phosphorylated product). Type of assay: biochemical. The note with it: Assay A; 20 μM ATP, 40 min incubation; read-out: SGK1 IC50.

Where “and” joins values, the source holds several entries; their conditions need not be identical. Identical values can stand only once.

`COC(=O)N1CC=C(c2cc(N3CCC[C@@H](NC(=O)c4sc(Cl)cc4OC4CCNC4)C3)c3c(N)ncnn23)C1` (stereo partly drawn) [Example 570, Methyl 3-(4-amino-5-((3R)-3-(5-chloro-3-(pyrrolidin-3-yloxy)thiophene-2-carboxamido)piperidin-1-yl)pyrrolo[2,1-f][1,2,4]triazin-7-yl)-2,5-dihydro-1H-pyrrole-1-carboxylate]: the IC50 (usually the point on the concentration scale where inhibition reaches its midpoint) came out at 3 nM. As to `COC(=O)N1CC=C(c2cc(N3CCC[C@@H](NC(=O)c4sc(Cl)cc4OCC4CCNCC4)C3)c3c(N)ncnn23)C1` [Example 571, Methyl (R)-3-(4-amino-5-(3-(5-chloro-3-(piperidin-4-ylmethoxy)thiophene-2-carboxamido)piperidin-1-yl)pyrrolo[2,1-f][1,2,4]triazin-7-yl)-2,5-dihydro-1H-pyrrole-1-carboxylate], the half-maximal inhibitory concentration (IC50) came out at 8 nM. As for `COC(=O)N1CC=C(c2cc(N3CCC[C@@H](NC(=O)c4sc(Cl)cc4OC4CCN(C5COC5)CC4)C3)c3c(N)ncnn23)C1` [Example 572, Methyl (R)-3-(4-amino-5-(3-(5-chloro-3-((1-(oxetan-3-yl)piperidin-4-yl)oxy)thiophene-2-carboxamido)piperidin-1-yl)pyrrolo[2,1-f][1,2,4]triazin-7-yl)-2,5-dihydro-1H-pyrrole-1-carboxylate], the 50% inhibitory concentration (IC50) amounted to 3 nM. For `COC(=O)N1CC=C(c2cc(N3CCC[C@@H](NC(=O)c4sc(Cl)cc4OC4CN(C5CCOCC5)C4)C3)c3c(N)ncnn23)C1` [Example 573, Methyl (R)-3-(4-amino-5-(3-(5-chloro-3-((1-(tetrahydro-2H-pyran-4-yl)azetidin-3-yl)oxy)thiophene-2-carboxamido)piperidin-1-yl)pyrrolo[2,1-f][1,2,4]triazin-7-yl)-2,5-dihydro-1H-pyrrole-1-carboxylate] the value was 73 nM; for `CC(=O)N1CC=C(c2cc(N3CCC[C@@H](NC(=O)c4sc(Cl)cc4OC4CN(C)C4)C3)c3c(N)ncnn23)C1` [Example 576, (R)-N-(1-(7-(1-acetyl-2,5-dihydro-1H-pyrrol-3-yl)-4-aminopyrrolo[2,1-f][1,2,4]triazin-5-yl)piperidin-3-yl)-5-chloro-3-((1-methylazetidin-3-yl)oxy)thiophene-2-carboxamide], 7 nM. The same measure for `CC(=O)N1CC=C(c2cc(N3CCC[C@@H](NC(=O)c4sc(Cl)cc4OC4CN(C(C)C)C4)C3)c3c(N)ncnn23)C1` [Example 577, (R)-N-(1-(7-(1-acetyl-2,5-dihydro-1H-pyrrol-3-yl)-4-aminopyrrolo[2,1-f][1,2,4]triazin-5-yl)piperidin-3-yl)-5-chloro-3-((1-isopropylazetidin-3-yl)oxy)thiophene-2-carboxamide]: 6 nM; for `CC(=O)N1CC=C(c2cc(N3CCC[C@@H](NC(=O)c4sc(Cl)cc4OC4CN(CCO)C4)C3)c3c(N)ncnn23)C1` [Example 578, (R)-N-(1-(7-(1-acetyl-2,5-dihydro-1H-pyrrol-3-yl)-4-aminopyrrolo[2,1-f][1,2,4]triazin-5-yl)piperidin-3-yl)-5-chloro-3-((1-(2-hydroxyethyl)azetidin-3-yl)oxy)thiophene-2-carboxamide]: 17 nM. The same measure for `CC(=O)N1CC=C(c2cc(N3CCC[C@@H](NC(=O)c4sc(Cl)cc4OC4CCN(C)CC4)C3)c3c(N)ncnn23)C1` [Example 579, (R)-N-(1-(7-(1-acetyl-2,5-dihydro-1H-pyrrol-3-yl)-4-aminopyrrolo[2,1-f][1,2,4]triazin-5-yl)piperidin-3-yl)-5-chloro-3-((1-methylpiperidin-4-yl)oxy)thiophene-2-carboxamide]: 4 nM. With `CC(=O)N1CC=C(c2cc(N3CCC[C@@H](NC(=O)c4sc(Cl)cc4OC4CC5(CNC5)C4)C3)c3c(N)ncnn23)C1` [Example 580], the 50% inhibitory concentration (IC50) stood at 5 nM. The same measure for `CC(=O)N1CC=C(c2cc(N3CCC[C@@H](NC(=O)c4sc(Cl)cc4OC4CC5(C4)CN(C)C5)C3)c3c(N)ncnn23)C1` [Example 581, (R)-N-(1-(7-(1-acetyl-2,5-dihydro-1H-pyrrol-3-yl)-4-aminopyrrolo[2,1-f][1,2,4]triazin-5-yl)piperidin-3-yl)-5-chloro-3-((2-methyl-2-azaspiro[3.3]heptan-6-yl)oxy)thiophene-2-carboxamide]: 4 nM.

As to `CC(=O)N1CC=C(c2cc(N3CCC[C@@H](NC(=O)c4sc(Cl)cc4OC4CCN(C5COC5)CC4)C3)c3c(N)ncnn23)C1` [Example 582], the IC50 came out at 10 nM. The same measure for `CN(C)CCOc1cc(Cl)sc1C(=O)N[C@@H]1CCCN(c2cc(-c3cncnc3)n3ncnc(N)c23)C1` [Example 583, (R)-N-(1-(4-amino-7-(pyrimidin-5-yl)pyrrolo[2,1-f][1,2,4]triazin-5-yl)piperidin-3-yl)-5-chloro-3-(2-(dimethylamino)ethoxy)thiophene-2-carboxamide]: 16 nM and 26 nM; for `Nc1ncnn2c(-c3cncnc3)cc(N3CCC[C@@H](NC(=O)c4sc(Cl)cc4OC4CCN(C5COC5)CC4)C3)c12` [Example 584]: 26 nM. The same measure for `CN1CCC(Oc2cc(Cl)sc2C(=O)N[C@@H]2CCCN(c3cc(-c4cncnc4)n4ncnc(N)c34)C2)CC1` [Example 585, (R)-N-(1-(4-amino-7-(pyrimidin-5-yl)pyrrolo[2,1-f][1,2,4]triazin-5-yl)piperidin-3-yl)-5-chloro-3-((1-methylpiperidin-4-yl)oxy)thiophene-2-carboxamide]: 9 nM; for `Nc1ncnn2c(-c3ccnc(C(F)F)c3)cc(N3CCC[C@@H](NC(=O)c4sc(Cl)cc4OC4CCNC4)C3)c12` (stereo partly drawn) [Example 586, N-((R)-1-(4-amino-7-(2-(difluoromethyl)pyridin-4-yl)pyrrolo[2,1-f][1,2,4]triazin-5-yl)piperidin-3-yl)-5-chloro-3-(pyrrolidin-3-yloxy)thiophene-2-carboxamide]: 4 nM. For `Nc1ncnn2c(-c3ccnc(C(F)F)c3)cc(N3CCC[C@@H](NC(=O)c4sc(Cl)cc4OC4CCNCC4)C3)c12` [Example 588, (R)-N-(1-(4-amino-7-(2(difluoromethyl)pyridin-4-yl)pyrrolo[2,1-f][1,2,4]triazin-5-yl)piperidin-3-yl)-5-chloro-3-(piperidin-4-yloxy)thiophene-2-carboxamide] the value was 2 nM; for `CN1CCC(Oc2cc(Cl)sc2C(=O)N[C@@H]2CCCN(c3cc(-c4ccc(C(N)=O)c(F)c4)n4ncnc(N)c34)C2)CC1` [Example 589, (R)-N-(1-(4-amino-7-(4-carbamoyl-3-fluorophenyl)pyrrolo[2,1-f][1,2,4]triazin-5-yl)piperidin-3-yl)-5-chloro-3-((1-methylpiperidin-4-yl)oxy)thiophene-2-carboxamide], 2 nM; for `NC(=O)c1ccc(-c2cc(N3CCC[C@@H](NC(=O)c4sc(Cl)cc4OC4CC5(CNC5)C4)C3)c3c(N)ncnn23)cc1F` [Example 590, (R)-3-((2-azaspiro[3.3]heptan-6-yl)oxy)-N-(1-(4-amino-7-(4-carbamoyl-3-fluorophenyl)pyrrolo[2,1-f][1,2,4]triazin-5-yl)piperidin-3-yl)-5-chlorothiophene-2-carboxamide], 2 nM. Turning to `N#Cc1ccc(-c2cc(N3CCC[C@@H](NC(=O)c4sc(Cl)cc4OC4CC5(CNC5)C4)C3)c3c(N)ncnn23)cn1` [Example 591], the IC50 amounted to 1 nM. For `NC(=O)c1ccc(-c2cc(N3CCC[C@@H](NC(=O)c4sc(Cl)cc4OC4CC5(CNC5)C4)C3)c3c(N)ncnn23)cn1` [Example 592, (R)-5-(5-(3-(3-((2-azaspiro[3.3]heptan-6-yl)oxy)-5-chlorothiophene-2-carboxamido)piperidin-1-yl)-4-aminopyrrolo[2,1-f][1,2,4]triazin-7-yl)picolinamide] the value was 0.5 nM.

For `CC(=O)N1CC=C(c2cc(N3CCC[C@@H](NC(=O)c4sc(Cl)cc4OC4CCCN(C)C4)C3)c3c(N)ncnn23)C1` (stereo partly shown) [Example 597], the IC50 amounted to 10 nM.

As to `CC(=O)N1CC=C(c2cc(N3CCC[C@@H](NC(=O)c4sc(Cl)cc4OC4CC(N(C)C)C4)C3)c3c(N)ncnn23)C1` (stereo partly drawn) [Example 598, (R)-N-(1-(7-(1-acetyl-2,5-dihydro-1H-pyrrol-3-yl)-4-aminopyrrolo[2,1-f][1,2,4]triazin-5-y1)piperidin-3-y1)-5-chloro-3-(3-(dimethylamino)cyclobutoxy)thiophenc-2-carboxamide], the IC50 is 6 nM. The same measure for `CC(=O)N1CC=C(c2cc(N3CCC[C@@H](NC(=O)c4sc(Cl)cc4OC4CC(N(C)C)C4)C3)c3c(N)ncnn23)C1` (stereo partly drawn) [Example 599, (R)-N-(1-(7-(1-acetyl-2,5-dihydro-1H-pyrrol-3-yl)-4-aminopyrrolo[2,1-f][1,2,4]triazin-5-yl)piperidin-3-y1)-5-chloro-3-(3-(dimethylamino)cyclobutoxy)thiophene-2-carboxamide]: 8 nM.

As to `CC(=O)N1CC=C(c2cc(N3CCC[C@@H](NC(=O)c4sc(Cl)cc4OC4CCNCC4F)C3)c3c(N)ncnn23)C1` (stereo partly drawn) [Example 601, N-((R)-1-(7-(1-acetyl-2,5-dihydro-1H-pyrrol-3-yl)-4-aminopyrrolo[2,1-f][1,2,4]triazin-5-yl)piperidin-3-y1)-5-chloro-3-((3-fluoropiperidin-4-yl)oxy)thiophene-2-carboxamide], the IC50 came to 4 nM. For `CC(=O)N1CC=C(c2cc(N3CCC[C@@H](NC(=O)c4sc(Cl)cc4OC4CCNCC4F)C3)c3c(N)ncnn23)C1` (stereo partly drawn) [Example 602, N-((R)-1-(7-(1-acetyl-2,5-dihydro-1H-pyrrol-3-yl)-4-aminopyrrolo[2,1-f][1,2,4]triazin-5-y1)piperidin-3-y1)-5-chloro-3-((3-fluoropiperidin-4-yl)oxy)thiophone-2-carboxamide] the value was 3 nM.
